Patent US20210403420A1, “BENZOATE COMPOUND” (SCOHIA PHARMA, INC., priority 2018, published 2021)
Counter-ions that a name gives are not always drawn.

Tests used:
[1] = system: High fat diet-fed mice; assay: Fecal protein concentration-increasing test using high fat diet-fed mouse; type: in vivo; settings: Mus musculus, po, 24 h, 30 mg/kg oral, feces of first day of administration, vehicle group = 100, read-out: Fecal protein concentration-increasing rate
Text: Test Example 2: Fecal Protein Concentration-Increasing Test Using High Fat Diet-Fed Mouse
High fat diet-fed mice (D12451 diet, male, 10- to 50-week old) were orally administered with a 0.5% methyl cellulose suspension containing a test compound (compound administration group, five mice per group) or a 0.5% methyl cellulose suspension (compound non-administration group (vehicle group), five mice per group), and whole feces were collected on the first day of administration. Dried feces were dissolved in 0.5 N NaOH, followed by centrifugation at 12,000 rpm. The protein concentration in the supernatant was then quantitatively measured (Lowry method), and the amount of protein contained in 1 g of feces was calculated as the fecal protein concentration (mg/g feces). The fecal protein concentration-increasing rate was calculated by the following expression.
Fecal protein concentration-increasing rate (%)=Fecal protein concentration of compound administration group/Fecal protein concentration of vehicle group×100

[2] = molecular target: T1, Human recombinant enteropeptidase (Homo sapiens, UniProt P98073); assay: Human enteropeptidase inhibitory activity; type: biochemical; settings: 1 μM test compound; fluorescence intensity at 2 hours after start of reaction; read-out: Inhibition rate at 1 μM
T1 construct: purchased ITSI-Biosciences LLC #REN-260
T1 sequence (P98073 whole entry): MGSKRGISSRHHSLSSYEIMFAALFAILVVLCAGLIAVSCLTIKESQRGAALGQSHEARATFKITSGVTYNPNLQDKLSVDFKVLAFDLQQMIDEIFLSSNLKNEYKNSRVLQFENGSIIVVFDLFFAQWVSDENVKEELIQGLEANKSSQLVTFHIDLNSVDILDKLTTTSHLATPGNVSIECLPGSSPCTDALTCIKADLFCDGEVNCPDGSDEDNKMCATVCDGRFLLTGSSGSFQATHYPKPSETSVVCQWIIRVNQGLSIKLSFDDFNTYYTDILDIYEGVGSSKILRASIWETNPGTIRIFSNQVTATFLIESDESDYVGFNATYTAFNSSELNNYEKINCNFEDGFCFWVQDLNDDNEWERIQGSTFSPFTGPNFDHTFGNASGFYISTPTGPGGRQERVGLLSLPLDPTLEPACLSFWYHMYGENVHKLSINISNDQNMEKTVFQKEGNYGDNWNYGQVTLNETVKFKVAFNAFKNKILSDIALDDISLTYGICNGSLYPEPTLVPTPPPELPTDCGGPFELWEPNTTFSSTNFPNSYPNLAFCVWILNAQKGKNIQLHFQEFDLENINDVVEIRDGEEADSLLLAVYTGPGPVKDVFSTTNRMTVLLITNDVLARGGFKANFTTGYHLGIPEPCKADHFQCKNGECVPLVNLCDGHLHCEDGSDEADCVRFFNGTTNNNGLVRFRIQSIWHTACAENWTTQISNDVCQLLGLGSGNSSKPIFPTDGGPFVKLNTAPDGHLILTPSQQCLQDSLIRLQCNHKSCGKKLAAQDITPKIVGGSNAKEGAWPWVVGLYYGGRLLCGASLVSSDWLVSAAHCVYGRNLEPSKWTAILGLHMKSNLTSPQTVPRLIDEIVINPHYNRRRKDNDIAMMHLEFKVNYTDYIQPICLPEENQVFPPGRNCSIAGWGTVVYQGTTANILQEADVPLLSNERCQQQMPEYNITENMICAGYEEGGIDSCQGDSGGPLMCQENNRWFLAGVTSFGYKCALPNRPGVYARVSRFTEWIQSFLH
Experimental: Test Example 1: Human Enteropeptidase Inhibitory Activity
Human recombinant enteropeptidase (#REN-260, ITSI-Biosciences LLC) was diluted with an assay buffer (50 mM Tricine, pH 8.0, 0.01 (w/v) %, Tween 20, 10 mM CaCl2)) to prepare a 24 mU/mL enzyme solution. Subsequently, 5FAM-Abu-Gly-Asp-Asp-Asp-Lys-Ile-Val-Gly-Gly-Lys(CPQ2)-Lys-Lys-NH2 (CPC Scientific Inc.) was diluted with the assay buffer to prepare a 2.1 μM substrate solution. A test compound is dissolved in DMSO into a 10 mM solution, and the solution was diluted with the assay buffer to give a compound solution. To a 384-well black plate (#784076, Greiner Bio-One), 5 μL of the compound solution and 5 μL of the substrate solution were added and mixed, and 5 μL of the enzyme solution was then added to the mixture, followed by mixing to start the reaction. The fluorescence intensity was measured with a fluorescence plate reader EnVision (The Perkin-Elmer Corp.) at an excitation wavelength of 485 nm and a fluorescence wavelength of 535 nm. The same reaction as above was performed without the addition of the test compound (test compound non-addition group). Furthermore, the same reaction as above was performed without the addition of the test compound and the enzyme (control group). The inhibition rate was calculated using the fluorescence intensity at 2 hours after the start of the reaction by the following expression:
Inhibition rate (%)=(1−((fluorescence intensity of test compound addition group)−(fluorescence intensity of control group))/((fluorescence intensity of test compound non-addition group)−(fluorescence intensity of control group)))×100

[3] = system: Diet-induced obesity (DIO) mice; assay: Anti-obesity effect test using DIO mouse; type: in vivo; settings: for Body weight (g) At start of administration: average at start of administration; for Body weight (g) After 7-day administration: average; for Fecal protein concentration-increasing rate (%): feces of eighth day, vehicle = 100
Experimental: Test Example 3: Anti-Obesity Effect Test Using DIO Mouse
Diet-induced obesity (DIO) mice (D12451 diet, male, 26-week old) were orally administered with a 0.5% methyl cellulose suspension containing a test compound (30 mg/kg) (compound administration group, five mice per group) or a 0.5% methyl cellulose suspension (compound non-administration group (vehicle), five mice per group) once a day for seven days, and whole feces were collected on the eighth day of administration. Dried feces were dissolved in 0.5 N NaOH, followed by centrifugation at 12,000 rpm. The protein concentration in the supernatant was then quantitatively measured (Lowry method), and the amount of protein contained in 1 g of feces was calculated as the fecal protein concentration (mg/g feces). The fecal protein concentration-increasing rate was calculated by the following expression.
Fecal protein concentration-increasing rate (%)=Fecal protein concentration of compound administration group/Fecal protein concentration of vehicle group X 100
The fecal protein concentration-increasing rate and the averages of the body weights at the start of administration and after administration for seven days are shown in Table 6.
Also, DIO mice (D12451 diet, male, 59-week old) were orally administered with a 0.5% methyl cellulose suspension containing a test compound (20 mg/kg) (compound administration group, five mice per group) or a 0.5% methyl cellulose suspension (compound non-administration group (vehicle), five mice per group) once a day for seven days, and whole feces were collected on the eighth day of administration. The fecal protein concentration (mg/g feces) was calculated by the method described above. The fecal protein concentration-increasing rate and the averages of the body weights at the start of administration and after administration for seven days are shown in Table 7.

[4] = DIO mice 26-week old, 30 mg/kg group
[5] = DIO mice 26-week old, 30 mg/kg oral once a day for seven days
[6] = DIO mice 59-week old, 20 mg/kg group
[7] = DIO mice 59-week old, 20 mg/kg oral once a day for seven days

Row | Compound | inhibition at 1 µM [2] [%] | response vs control in vivo at 30 mg/kg [1] [%] | Body weight (g) At start of administration [3, 4] [g] | Body weight (g) After 7-day administration [3, 5] [g] | Fecal protein concentration-increasing rate (%) [3, 5] [%] | Body weight (g) At start of administration [3, 6] [g] | Body weight (g) After 7-day administration [3, 7] [g] | Fecal protein concentration-increasing rate (%) [3, 7] [%]
1 | Cl.Cl.N=C(N)Nc1ccc(C(=O)Oc2cc(OCCOCCOc3cc(OC(=O)c4ccc(NC(=N)N)cc4)cc(C(=O)N[C@H](CC(=O)O)C(=O)O)c3)cc(C(=O)N[C@H](CC(=O)O)C(=O)O)c2)cc1 [Example 15, (2R)-2-[[3-[2-[2-[3-[[(1R)-1,2-Dicarboxyethyl]carbamoyl]-5-(4-guanidinobenzoyl)oxyphenoxy]ethoxy]ethoxy]-5-(4-guanidinobenzoyl)oxybenzoyl]amino]butanedioic acid dihydrochloride] | 100 | 212 | 46.0 | 43.4 | 250 | 56.6 | 54.0 | 227
2 | N=C(N)Nc1ccc(C(=O)Oc2ccc(CCC(=O)N[C@@H](CC(=O)O)C(=O)O)c(OCCOCCOCCOc3cc(OC(=O)c4ccc(NC(=N)N)cc4)ccc3CCC(=O)N[C@@H](CC(=O)O)C(=O)O)c2)cc1 [Example 12, (2S)-2-[3-[2-[2-[2-[2-[2-[3-[[(1S)-1,2-Dicarboxyethyl]amino]-3-oxopropyl]-5-(4-guanidinobenzoyl)oxyphenoxy]ethoxy]ethoxy]ethoxy]-4-(4-guanidinobenzoyl)oxyphenyl]propanoylamino]butanedioic acid dihydrochloride] | 100 | 197 | 45.4 | 44.7 | 280 | – | – | –

Now from value to molecule, other results behind:

Row | inhibition at 1 µM [2] [%] | Compound | response vs control in vivo at 30 mg/kg [1] [%] | Body weight (g) At start of administration [3, 4] [g] | Body weight (g) After 7-day administration [3, 5] [g] | Fecal protein concentration-increasing rate (%) [3, 5] [%] | Body weight (g) At start of administration [3, 6] [g] | Body weight (g) After 7-day administration [3, 7] [g] | Fecal protein concentration-increasing rate (%) [3, 7] [%]
3 | 100 | N=C(N)Nc1ccc(C(=O)Oc2cc(OCCOc3cc(OC(=O)c4ccc(NC(=N)N)cc4)cc(C(=O)N[C@H](CC(=O)O)C(=O)O)c3)cc(C(=O)N[C@H](CC(=O)O)C(=O)O)c2)cc1 [Example 16, (2R)-2-[[3-[2-[3-[[(1R)-1,2-Dicarboxyethyl]carbamoyl]-5-(4-Guanidinobenzoyl)oxyphenoxy]ethoxy]-5-(4-guanidinobenzoyl)oxybenzoyl]amino]butanedioic acid dihydrochloride] | 245 | 45.7 | 44.7 | 271 | – | – | –
4 | 100 | N=C(N)Nc1ccc(C(=O)Oc2ccc(C(=O)N[C@H](CC(=O)O)C(=O)O)c(OCCOCCOc3cc(OC(=O)c4ccc(NC(=N)N)cc4)ccc3C(=O)N[C@H](CC(=O)O)C(=O)O)c2)cc1 [Example 21, (2R)-2-[[2-[2-[2-[2-[[(1R)-1,2-Dicarboxyethyl]carbamoyl]-5-(4-guanidinobenzoyl)oxyphenoxy]ethoxy]ethoxy]-4-(4-guanidinobenzoyl)oxybenzoyl]amino]butanedioic acid dihydrochloride] | 203 | – | – | – | 56.7 | 53.6 | 248
5 | 98 | N=C(N)Nc1ccc(C(=O)Oc2cc(OCCOCCOCCOCCOCCOCCOCCOc3cc(OC(=O)c4ccc(NC(=N)N)cc4)cc(C(=O)N[C@@H](CC(=O)O)C(=O)O)c3)cc(C(=O)N[C@@H](CC(=O)O)C(=O)O)c2)cc1 [Example 3, (2S)-2-[[3-[2-[2-[2-[2-[2-[2-[2-[3-[[(1S)-1,2-Dicarboxyethyl]carbamoyl]-5-(4-guanidinobenzoyl)oxyphenoxy]ethoxy]ethoxy]ethoxy]ethoxy]ethoxy]ethoxy]ethoxy]-5-(4-guanidinobenzoyl)oxybenzoyl]amino]butanedioic acid] | 152 | – | – | – | – | – | –
